In patent publication US20080125397A1, “2 (SULFONYL)ETHYL N,N,N',N' tetrakis(2 chloroethyl)phosphorodia” (Telik, Inc., priority 2006, published 2008):

Tests used:
Solubility in water = format: physicochemical
MX-1 (breast carcinoma) = experiment: Cytotoxicity/growth inhibition assay (CellTiter-Glo), MX-1; format: cell-based, human
Procedure: (§1) The human cancer cell lines DLD-1 (colorectal adenocarcinoma), LNCaP (prostate carcinoma), and MIA PaCa-2 (pancreatic carcinoma) were obtained from the American Type Culture Collection, Manassas, Va., U.S.A., and MX-1 (breast carcinoma) from the National Cancer Institute, Bethesda, Md., U.S.A. The CellTiter-Glo assay kit was obtained from Promega Corporation, Madison, Wis., U.S.A. All products were used in accordance with manufacturer's directions. All assays were conducted in triplicate wells, with dimethyl sulfoxide (DMSO) solvent control. The extent of cell growth was expressed as a percentage of the signal from the solvent control wells.
(§2) Log-phase cells were trypsinized, collected by centrifugation, and resuspended in a small volume of fresh medium, and the density of viable cells was determined following Trypan Blue staining. Cells were diluted in fresh media (3×10^3 cells/mL for DLD-1, MIA PaCa-2, and MX-1, and 6×10^3 cells/mL for LNCaP), and added at 150 μL/well to 96-well plates, and incubated for several hours to allow attachment in the case of adherent cells. […] After incubation for 10 minutes at room temperature, and the plate was read with a luminometer.

[1] = Safety at the doses tested in the in vivo examples; design: species or system athymic nu/nu mice
Procedure: (§3) Female athymic nu/nu mice (Harlan, Indianapolis, Ind., U.S.A. or similar vendor), 6-8 weeks old (approximately 20 g), were implanted in the mammary fat pad of the right fore flank with 20-30 mg pieces of MX-1 tumor harvested from similar nu/nu mice that had previously been implanted with the MX-1 tumor. […] Groups of mice were treated with 2-({2-oxo-2-[(pyridin-3-ylmethyl)amino]ethyl}sulfonyl)ethyl N,N,N′,N′-tetrakis(2-chloroethyl)phosphorodiamidate hydrochloride at 50 and 100 mg/Kg, dissolved in aqueous 5% dextrose, by intraperitoneal injection once/day for 5 consecutive days, with vehicle control. Tumor mass, estimated from volume, was measured twice weekly; and tumor growth inhibition was measured when the average tumor mass in the control group first exceeded 2000 mg.
(§4) A study similar to that described in In vivo Example 1 was performed using oral administration of 2-({2-oxo-2-[(pyridin-3-ylmethyl)amino]ethyl}sulfonyl)ethyl N,N,N′,N′-tetrakis(2-chloroethyl)phosphorodiamidate hydrochloride. A group of mice was treated with the compound, dissolved in water, at 150 mg/Kg by gavage once/day for 5 consecutive days (with vehicle control).
A study similar to that described in In vivo Example 1 was performed using intravenous administration of 2-({2-oxo-2-[(pyridin-3-ylmethyl)amino]ethyl}sulfonyl)ethyl N,N,N′,N′-tetrakis(2-chloroethyl)phosphorodiamidate hydrochloride. […]

[2] = system: MIA PaCa-2 (pancreatic carcinoma); experiment: Cytotoxicity/growth inhibition assay (CellTiter-Glo), MIA PaCa-2; format: cell-based, human
Procedure: as §1, §2

[3] = system: LNCaP (prostate carcinoma); experiment: Cytotoxicity/growth inhibition assay (CellTiter-Glo), LNCaP; format: cell-based, human
Procedure: as §1, §2

[4] = system: DLD-1 (colorectal adenocarcinoma); experiment: Cytotoxicity/growth inhibition assay (CellTiter-Glo), DLD-1; format: cell-based, human
Procedure: as §1, §2

MX-1 tumor [5] = experiment: MX-1 xenograft assay, oral administration; format: in vivo, athymic nu/nu mice; settings: 150 mg/Kg by gavage once/day for 5 consecutive days
Procedure: as §3, §4

MX-1 tumor [6] = experiment: MX-1 xenograft assay, intraperitoneal administration; format: in vivo, athymic nu/nu mice
Procedure: as §3

MIA PaCa-2 tumor = experiment: MiaPaCa-2 xenograft assay, intraperitoneal administration; format: in vivo, athymic nu/nu mice; settings: 100 mg/Kg intraperitoneal once/day for 7 consecutive days
Procedure: Male athymic nu/nu mice, 6-8 weeks old (approximately 20 g), were implanted subcutaneously in the right fore flank with 20-30 mg pieces of MIA PaCa-2 tumor harvested from similar nu/nu mice that had previously been implanted with the MIA PaCa-2 tumor. […] A group of mice was treated with 2-({2-oxo-2-[(pyridin-3-ylmethyl)-amino]ethyl}sulfonyl)ethyl N,N,N′,N′-tetrakis(2-chloroethyl)phosphorodiamidate hydrochloride, dissolved in aqueous 5% dextrose, at 100 mg/Kg by intraperitoneal injection once/day for 7 consecutive days, with vehicle control.

MX-1 tumor [7] = experiment: MX-1 xenograft assay, intravenous administration; format: in vivo, athymic nu/nu mice
Procedure: as §3
A study similar to that described in In vivo Example 1 was performed using intravenous administration of 2-({2-oxo-2-[(pyridin-3-ylmethyl)amino]ethyl}sulfonyl)ethyl N,N,N′,N′-tetrakis(2-chloroethyl)phosphorodiamidate hydrochloride. A group of mice was treated with the compound, dissolved in aqueous 5% dextrose, at 40 and 80 mg/Kg by tail vein injection once/day for 5 consecutive days (with vehicle control).

SMILES	solubility (Solubility in water) [µg/mL]	potency compared with canfosfamide (MX-1 (breast carcinoma); MX-1)	safety/toxicity [1]	potency compared with canfosfamide ([2]; MIA PaCa-2)	potency compared with canfosfamide [3]	potency compared with canfosfamide ([4]; DLD-1)	IC50 (MX-1 (breast carcinoma); Homo sapiens, 72 h, MX-1, 3 days culture) [µM]	inhibition of tumor growth compared to vehicle (MX-1 tumor [5]) [%]	IC50 ([2]; Homo sapiens, 72 h, MIA PaCa-2, 3 days culture) [µM]	inhibition of tumor growth compared to vehicle (MX-1 tumor [6]; 50 mg/Kg intraperitoneal once/day for 5 consecutive days) [%]	inhibition of tumor growth compared to vehicle (MX-1 tumor [6]; 100 mg/Kg intraperitoneal once/day for 5 consecutive days) [%]	inhibition of tumor growth compared to vehicle (MIA PaCa-2 tumor) [%]	IC50 ([3]; Homo sapiens, 96 h, 4 days culture) [µM]	IC50 ([4]; Homo sapiens, 96 h, DLD-1, 4 days culture) [µM]	inhibition of tumor growth compared to vehicle (MX-1 tumor [7]; 40 mg/Kg tail vein injection once/day for 5 consecutive days) [%]	inhibition of tumor growth compared to vehicle (MX-1 tumor [7]; 80 mg/Kg tail vein injection once/day for 5 consecutive days) [%]
O=C(CS(=O)(=O)CCOP(=O)(N(CCCl)CCCl)N(CCCl)CCCl)NCc1cccnc1.O=C(O)C(O)C(O)C(=O)O [tartrate salt, 2-({2-Oxo-2-[(pyridin-3-ylmethyl)amino]ethyl}sulfonyl)ethyl N,N,N′,N′-tetrakis(2-chloroethyl)phosphorodiamidate tartrate]	≥ 5000															
O=C(CS(=O)(=O)CCOP(=O)(N(CCCl)CCCl)N(CCCl)CCCl)NCc1cccnc1 [2-({2-oxo-2-[(pyridin-3-ylmethyl)amino]ethyl}sulfonyl)ethyl N,N,N′,N′-tetrakis(2-chloroethyl)phosphorodiamidate]		at least as potent as canfosfamide	safe and non-toxic	at least as potent as canfosfamide	at least as potent as canfosfamide	at least as potent as canfosfamide										
Cl.O=C(CS(=O)(=O)CCOP(=O)(N(CCCl)CCCl)N(CCCl)CCCl)NCc1cccnc1 [2-({2-Oxo-2-[(pyridin-3-ylmethyl)amino]ethyl}sulfonyl)ethyl N,N,N′,N′-tetrakis(2-chloroethyl)phosphorodiamidate hydrochloride]	≥ 10000						22	67	16	28	95	92	67	12	39	98
